Results taken from the supplement of paper PMC11208160.

assay: recombinant barcode read abundance after kanamycin selection (control-corrected) (log10(CPM+1)); higher = more efficient recombination; sequences stand for … in AGTGCAGAGAAAATCGGCCAGTTTTCTCTGCCTGCAGTCCGCATGCCGT…ATTTATGCAGCGGACTGCCTTTCTCCCAAAGTGATAAACCGGACAGTATCATGGACCGGTTTTCCCGGTAATCCGTATTTGCAAGGTTGGTTTCACT; site = the 11-nt target
Description: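 Same pooled E. coli target screen (IS621 bridge recombinase, kanamycin selection, control-corrected CPM, mean of 2 biological replicates). Here the two core-binding nucleotides of the LTG and RTG of the bridge RNA target-binding loop are mutated. Target and donor CT cores are held constant, and the other 9 guide positions match the target. The target is read from the library oligo sequence. Molecule = full bridge RNA written as DNA: nt 1-80 from the library oligo, rest WT scaffold.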

| Sequence | recombinant barcode read abundance (log10) |
| --- | --- |
| AGGCGGGCTTGGGTTCTAACCTGTTGCGGAA [AGGCGGGCTCC_LTGcore_CT_RTGcore_TT] (site AGGCGGGCTCC) (LTG core: CT, RTG core: TT) | 0.532 |
| AGGCGGGCTTGGGTTCTAACCTGTTGCGGGG [AGGCGGGCTCC_LTGcore_CT_RTGcore_CC] (site AGGCGGGCTCC) (LTG core: CT, RTG core: CC) | 0.756 |
| AGGCGGGGGTGGGTTCTAACCTGTTGCGGCC [AGGCGGGCTCC_LTGcore_GG_RTGcore_GG] (site AGGCGGGCTCC) (LTG core: GG, RTG core: GG) | 0.0346 |
| AGGCGGGTATGGGTTCTAACCTGTTGCGGAG [AGGCGGGCTCC_LTGcore_TA_RTGcore_CT] (site AGGCGGGCTCC) (LTG core: TA, RTG core: CT) | 0.232 |
| AGGCGGGTTTGGGTTCTAACCTGTTGCGGAG [AGGCGGGCTCC_LTGcore_TT_RTGcore_CT] (site AGGCGGGCTCC) (LTG core: TT, RTG core: CT) | 0.475 |
| AGGCGGTACTGGGTTCTAACCTGTTGCTTAG [AGGCGGTCTAA_LTGcore_AC_RTGcore_CT] (site AGGCGGTCTAA) (LTG core: AC, RTG core: CT) | 0.272 |
| AGGCGGTATTGGGTTCTAACCTGTTGCTTAT [AGGCGGTCTAA_LTGcore_AT_RTGcore_AT] (site AGGCGGTCTAA) (LTG core: AT, RTG core: AT) | 0.109 |
| AGGCGGTCCTGGGTTCTAACCTGTTGCTTAG [AGGCGGTCTAA_LTGcore_CC_RTGcore_CT] (site AGGCGGTCTAA) (LTG core: CC, RTG core: CT) | 0.341 |
| AGGCGGTCCTGGGTTCTAACCTGTTGCTTGG [AGGCGGTCTAA_LTGcore_CC_RTGcore_CC] (site AGGCGGTCTAA) (LTG core: CC, RTG core: CC) | 0.334 |
| AGGCGGTCGTGGGTTCTAACCTGTTGCTTAG [AGGCGGTCTAA_LTGcore_CG_RTGcore_CT] (site AGGCGGTCTAA) (LTG core: CG, RTG core: CT) | 0.398 |
| AGGCGGTCTTGGGTTCTAACCTGTTGCTTCA [AGGCGGTCTAA_LTGcore_CT_RTGcore_TG] (site AGGCGGTCTAA) (LTG core: CT, RTG core: TG) | 0.171 |
| AGGCGGTCTTGGGTTCTAACCTGTTGCTTCG [AGGCGGTCTAA_LTGcore_CT_RTGcore_CG] (site AGGCGGTCTAA) (LTG core: CT, RTG core: CG) | 0.117 |
| AGGCGGTCTTGGGTTCTAACCTGTTGCTTTA [AGGCGGTCTAA_LTGcore_CT_RTGcore_TA] (site AGGCGGTCTAA) (LTG core: CT, RTG core: TA) | 0.353 |
| AGGCGGTGTTGGGTTCTAACCTGTTGCTTAC [AGGCGGTCTAA_LTGcore_GT_RTGcore_GT] (site AGGCGGTCTAA) (LTG core: GT, RTG core: GT) | 0.278 |
| AGGCGGTTATGGGTTCTAACCTGTTGCTTAG [AGGCGGTCTAA_LTGcore_TA_RTGcore_CT] (site AGGCGGTCTAA) (LTG core: TA, RTG core: CT) | 0.168 |
| AGGCGGTTATGGGTTCTAACCTGTTGCTTTA [AGGCGGTCTAA_LTGcore_TA_RTGcore_TA] (site AGGCGGTCTAA) (LTG core: TA, RTG core: TA) | 0.025 |
| AGGCGGTTCTGGGTTCTAACCTGTTGCTTAG [AGGCGGTCTAA_LTGcore_TC_RTGcore_CT] (site AGGCGGTCTAA) (LTG core: TC, RTG core: CT) | 0 |
| AGGCGGTTCTGGGTTCTAACCTGTTGCTTGA [AGGCGGTCTAA_LTGcore_TC_RTGcore_TC] (site AGGCGGTCTAA) (LTG core: TC, RTG core: TC) | 0.191 |
| AGGCGGTTTTGGGTTCTAACCTGTTGCTTAG [AGGCGGTCTAA_LTGcore_TT_RTGcore_CT] (site AGGCGGTCTAA) (LTG core: TT, RTG core: CT) | 0.104 |
| AGTCTTAACTGGGTTCTAACCTGTTGCCAAG [AGTCTTACTTG_LTGcore_AC_RTGcore_CT] (site AGTCTTACTTG) (LTG core: AC, RTG core: CT) | 0.111 |
| AGTCTTAACTGGGTTCTAACCTGTTGCCAGT [AGTCTTACTTG_LTGcore_AC_RTGcore_AC] (site AGTCTTACTTG) (LTG core: AC, RTG core: AC) | 0.129 |
| AGTCTTAAGTGGGTTCTAACCTGTTGCCACT [AGTCTTACTTG_LTGcore_AG_RTGcore_AG] (site AGTCTTACTTG) (LTG core: AG, RTG core: AG) | 0.0305 |

| Sequence | recombinant barcode read abundance (log10) |
| --- | --- |
| AGTCTTACCTGGGTTCTAACCTGTTGCCAAG [AGTCTTACTTG_LTGcore_CC_RTGcore_CT] (site AGTCTTACTTG) (LTG core: CC, RTG core: CT) | 0.0498 |
| AGTCTTACTTGGGTTCTAACCTGTTGCCATG [AGTCTTACTTG_LTGcore_CT_RTGcore_CA] (site AGTCTTACTTG) (LTG core: CT, RTG core: CA) | 0.0163 |
| AGTCTTAGATGGGTTCTAACCTGTTGCCAAG [AGTCTTACTTG_LTGcore_GA_RTGcore_CT] (site AGTCTTACTTG) (LTG core: GA, RTG core: CT) | 0.23 |
| AGTCTTAGATGGGTTCTAACCTGTTGCCATC [AGTCTTACTTG_LTGcore_GA_RTGcore_GA] (site AGTCTTACTTG) (LTG core: GA, RTG core: GA) | 0.0257 |
| AGTCTTAGCTGGGTTCTAACCTGTTGCCAAG [AGTCTTACTTG_LTGcore_GC_RTGcore_CT] (site AGTCTTACTTG) (LTG core: GC, RTG core: CT) | 0.0805 |
| AGTCTTAGGTGGGTTCTAACCTGTTGCCAAG [AGTCTTACTTG_LTGcore_GG_RTGcore_CT] (site AGTCTTACTTG) (LTG core: GG, RTG core: CT) | 0 |
| AGTCTTAGTTGGGTTCTAACCTGTTGCCAAG [AGTCTTACTTG_LTGcore_GT_RTGcore_CT] (site AGTCTTACTTG) (LTG core: GT, RTG core: CT) | 0.0538 |
| AGTCTTATCTGGGTTCTAACCTGTTGCCAAG [AGTCTTACTTG_LTGcore_TC_RTGcore_CT] (site AGTCTTACTTG) (LTG core: TC, RTG core: CT) | 0.0237 |
| ATGCTTTAATGGGTTCTAACCTGTTGCCTTT [ATGCTTTCTAG_LTGcore_AA_RTGcore_AA] (site ATGCTTTCTAG) (LTG core: AA, RTG core: AA) | 0.125 |
| ATGCTTTACTGGGTTCTAACCTGTTGCCTGT [ATGCTTTCTAG_LTGcore_AC_RTGcore_AC] (site ATGCTTTCTAG) (LTG core: AC, RTG core: AC) | 0.0458 |
| ATGCTTTCTTGGGTTCTAACCTGTTGCCTAA [ATGCTTTCTAG_LTGcore_CT_RTGcore_TT] (site ATGCTTTCTAG) (LTG core: CT, RTG core: TT) | 0.322 |
| ATGCTTTCTTGGGTTCTAACCTGTTGCCTCA [ATGCTTTCTAG_LTGcore_CT_RTGcore_TG] (site ATGCTTTCTAG) (LTG core: CT, RTG core: TG) | 0.153 |
| ATGCTTTCTTGGGTTCTAACCTGTTGCCTCC [ATGCTTTCTAG_LTGcore_CT_RTGcore_GG] (site ATGCTTTCTAG) (LTG core: CT, RTG core: GG) | 0.127 |
| ATGCTTTCTTGGGTTCTAACCTGTTGCCTGG [ATGCTTTCTAG_LTGcore_CT_RTGcore_CC] (site ATGCTTTCTAG) (LTG core: CT, RTG core: CC) | 0.57 |
| ATGCTTTTGTGGGTTCTAACCTGTTGCCTCA [ATGCTTTCTAG_LTGcore_TG_RTGcore_TG] (site ATGCTTTCTAG) (LTG core: TG, RTG core: TG) | 0.313 |
| ATGTCCCAATGGGTTCTAACCTGTTGCTCTT [ATGTCCCCTGA_LTGcore_AA_RTGcore_AA] (site ATGTCCCCTGA) (LTG core: AA, RTG core: AA) | 0.133 |
| ATGTCCCATTGGGTTCTAACCTGTTGCTCAT [ATGTCCCCTGA_LTGcore_AT_RTGcore_AT] (site ATGTCCCCTGA) (LTG core: AT, RTG core: AT) | 0.0551 |
| ATGTCCCCATGGGTTCTAACCTGTTGCTCTG [ATGTCCCCTGA_LTGcore_CA_RTGcore_CA] (site ATGTCCCCTGA) (LTG core: CA, RTG core: CA) | 0.0134 |
| ATGTCCCCCTGGGTTCTAACCTGTTGCTCAG [ATGTCCCCTGA_LTGcore_CC_RTGcore_CT] (site ATGTCCCCTGA) (LTG core: CC, RTG core: CT) | 0.137 |
| ATGTCCCCCTGGGTTCTAACCTGTTGCTCGG [ATGTCCCCTGA_LTGcore_CC_RTGcore_CC] (site ATGTCCCCTGA) (LTG core: CC, RTG core: CC) | 0.0529 |
| ATGTCCCCGTGGGTTCTAACCTGTTGCTCAG [ATGTCCCCTGA_LTGcore_CG_RTGcore_CT] (site ATGTCCCCTGA) (LTG core: CG, RTG core: CT) | 0.0411 |
| ATGTCCCCTTGGGTTCTAACCTGTTGCTCAT [ATGTCCCCTGA_LTGcore_CT_RTGcore_AT] (site ATGTCCCCTGA) (LTG core: CT, RTG core: AT) | 0.0302 |
